Measured values as given in publication PMC10115881, “Disrupting the α-synuclein-ESCRT interaction with a peptide inhibitor mitigates neurodegeneration in preclinical models of Parkinson’s disease” (Nature Communications, 2023).
“And” between values parts separate entries of the source, which are not always exact repeats. Equal values may be shown once.

Columns and labels:
[1] = tested on: A53T a-syn-CHMP2B interaction; assay: Co-immunoprecipitation: disruption of a-syn-CHMP2B interaction; assay type: cell-based; settings: HEK293 co-immunoprecipitation
Protocol: HEK293T cells were co-transfected with Flag-tagged target protein, HA-tagged source protein, and GFP-tagged peptide or GFP. Cells were lysed 48 h after transfections with radioimmune precipitation assay buffer (50 mM Tris-HCl pH 7.4, 1% Nonidet P-40, 150 mM NaCl, 1 mM EDTA, 10 mM Na3VO4, 10 mM sodium pyrophosphate, 25 mM NaF, 1× protease inhibitor mixture (Sigma)) for 30 min at 4 °C and co-immunoprecipitated with Flag beads (Clontech). The resulting immunocomplexes were analyzed by immunoblot using the appropriate antibodies. Protein samples were separated using 4–20% Mini-PROTEAN Tris-glycine gels (Bio-Rad) transferred to PVDF membranes and blocked in 5% milk containing PBS-Tween-20 (0.1%) for 1 h. PVDF membranes were then incubated with specified primary antibodies followed by incubation with horseradish peroxidase-conjugated secondary antibodies (anti-mouse HRP-linked, Cell Signaling, catalog #7076, 1:5000; anti-rabbit HRP-linked, Cell Signaling, catalog #7074, 1:5000) and detected using enhanced chemiluminescence (GE Healthcare). HA antibodies were obtained from Santa Cruz (catalog #7392, 1:2000), GFP antibodies were purchased from Abcam (catalog #ab290, 1:2000), and Flag antibodies were purchased from Sigma (catalog #A8592, 1:1000).

A53T a-syn or EV rats [2] = assay: Cylinder test, forelimb asymmetry; assay type: in vivo, rat; set-up: Forelimb asymmetry in cylinder test: scale not given here; settings: for Forelimb asymmetry in cylinder test: individual rats
Protocol: Animals were secured in a stereotactic frame under isoflurane/oxygen anesthesia and ketoprofen (5 mg/kg) analgesia. The surgical site was shaved and sterilized with iodine/betadine prior to making a 2 cm incision along the midline. The scalp was exposed and a unilateral injection targeting the SN was performed at coordinates AP −5.2 mm, ML −2 mm and DV −7.5 mm with respect to the bregma as a point of reference. For each animal, a total volume of 2 μl of virus was injected at a rate of 0.5 μl/min using a microinjection pump and 10 μl Hamilton syringe with a 26-gauge needle. For A53T groups, 1 μl (low dose) or 1.34 μl (high dose) of AAV1/2-A53T a-syn (5.1 × 10^12 genomic particles/ml), 0.14 μl of AAV1/2-PDpep1.3-GFP or Scramble1.3-GFP (5.1 × 10^12 genomic particles/ml) and 0.86 μl or 0.52 μl of sterile PBS was injected; for EV groups, 1 μl (low dose) or 1.34 μl (high dose) of AAV1/2-EV (5.1 × 10^12 genomic particles/ml) replaced AAV1/2-A53T. For V1S/SV2 groups, 0.58 μl of AAV1/2-V1S (1.1 × 10^12 genomic particles/ml), 0.58 μl of AAV1/2-SV2 (1.1 × 10^12 genomic particles/ml), 0.14 μl of AAV1/2-PDpep1.3-RFP or Scramble1.3-RFP (5.1 × 10^12 genomic particles/ml) and 0.7 μl of sterile PBS was injected; for the YFP groups, 1.16 μl of AAV1/2-YFP (1.1 × 10^12 genomic particles/ml), 0.14 μl of AAV1/2-PDpep1.3-RFP or Scramble1.3-RFP (5.1 × 10^12 genomic particles/ml) and 0.7 μl of sterile PBS was injected. At the end of virus injection, the needle remained in place for 5 min before gradual removal.
Spontaneous forepaw use was evaluated using the cylinder test 1 day prior to stereotactic AAV injection, at 21 days post-injection, and at 41 days post-injection. Following overnight food restriction, individual rats with right paws marked black were placed into a glass cylinder in front of two mirrors and videos recorded. An observer blinded to treatment conditions later scored the videos by recording whether animals used their left forepaw, right forepaw, or both forepaws to touch the inner glass surface upon rearing. A total of 5 min of video recording was scored and a minimum of 10 total touches was required for data inclusion.

A53T a-syn or EV rats [3] = assay: Striatal catecholamines by HPLC; assay type: in vivo, rat; settings: A53T high titer
Protocol: Animals were secured in a stereotactic frame under isoflurane/oxygen anesthesia and ketoprofen (5 mg/kg) analgesia. The surgical site was shaved and sterilized with iodine/betadine prior to making a 2 cm incision along the midline. The scalp was exposed and a unilateral injection targeting the SN was performed at coordinates AP −5.2 mm, ML −2 mm and DV −7.5 mm with respect to the bregma as a point of reference. For each animal, a total volume of 2 μl of virus was injected at a rate of 0.5 μl/min using a microinjection pump and 10 μl Hamilton syringe with a 26-gauge needle. For A53T groups, 1 μl (low dose) or 1.34 μl (high dose) of AAV1/2-A53T a-syn (5.1 × 10^12 genomic particles/ml), 0.14 μl of AAV1/2-PDpep1.3-GFP or Scramble1.3-GFP (5.1 × 10^12 genomic particles/ml) and 0.86 μl or 0.52 μl of sterile PBS was injected; for EV groups, 1 μl (low dose) or 1.34 μl (high dose) of AAV1/2-EV (5.1 × 10^12 genomic particles/ml) replaced AAV1/2-A53T. […]
HPLC was performed as described. […] Catecholamines were determined from the supernatant. Values of catecholamines are expressed as ng analyte/mg total protein.

For DEEIERQLKALG [PDpep1.3], the “Effect on a-syn-CHMP2B interaction” value [1] was “disrupted this a-syn-CHMP2B interaction”, the “Forelimb asymmetry in cylinder test” value (A53T a-syn or EV rats [2]; A53T, 3 WPI) was -28.57 and 24.32 and 52.38 and 33.3333 and 9.524 and -2.857 and the “Forelimb asymmetry in cylinder test” value (A53T a-syn or EV rats [2]; A53T, 6 WPI) was -12.5 (2×) and 25.93 and 21.43 and 6.98. The “Forelimb asymmetry” value (A53T a-syn or EV rats [2]; A53T, 6 weeks) was “comparable to controls”, the “Forelimb asymmetry in cylinder test” value (A53T a-syn or EV rats [2]; A53T, baseline (prior to injection)) was -7.41 and 24.14 and 18.18 and 22.22 and -2.4 and -27.78 and 19.4 and the “Forelimb asymmetry in cylinder test” value (A53T a-syn or EV rats [2]; EV, 3 WPI) was 3.448 and -28.5714 and 80.9524 and -6.849 and 10.3448 and -26.6667 and 19.4444. For the same sequence, the “Forelimb asymmetry in cylinder test” value (A53T a-syn or EV rats [2]; EV, 6 WPI) was 20 and -14.29 and 37.5 and -3.23 and 75 and -33.33 and 3.03, the “Forelimb asymmetry in cylinder test” value (A53T a-syn or EV rats [2]; EV, baseline (prior to injection)) was 21.95 and -4 and 13.16 and -24.75 and 1.82 and 24.14 and 9.8 and the “Striatal dopamine, DOPAC and HVA” value (A53T a-syn or EV rats [3]) was “restored compared with the Scramble1.3 condition”.
